{"source": "patent US20200270310A1", "about": "“MAFG AS A POTENTIAL THERAPEUTIC TARGET TO RESTORE CHEMOSENSITIVITY IN PLATINUM-RESISTANT CANCER CELLS” (FUNDACÓIN PARA LA INVESTIGACIÓN BIOMÉDICA DEL HOSPITAL …, priority 2017, published 2020)", "molecules": {"B1": {"name": "GCGGATGAAGACTGGTGTCGATGCATGTGTAGTGCATTTCGAGCCGTTCTATTGGTGTGCCCTAAATACGAGCAAC (nucleic acid)", "chain": "GCGGATGAAGACTGGTGTCGATGCATGTGTAGTGCATTTCGAGCCGTTCTATTGGTGTGCCCTAAATACGAGCAAC", "modifications": "chemistry not given here", "notes": "DNA aptamer selected against the MAFG protein by SELEX"}}, "key": {"H23R cells [1]": {"system": "H23R cells", "assay": "Viability to CDDP after aptamer transfection (resistance index)", "format": "cell-based, human", "conditions": "comparison value for apMAFG6F", "protocol": "FIG. 6. Viability curves combining the best dose of aptamers (25nM) and increasing doses of CDDP. Each experimental group was exposed for 72 h to 6 different CDDP concentrations after aptamers transfection; data were normalized to each untreated control, set to 100% and represent the mean±SD of at least 3 independent experiments performed in quadruplicate at each drug concentration for each cell line analyzed 25nM of aptamers and increasing doses of CDDP in H23S/R cells.\nOnce identified the best dose of aptamers, cells were transfected with aptamers and treated with increased doses of CDDP to assay viability and ROS production as mentioned above. In parallel, for all the experiments, cells were seeded in 24-well plates for aptamers extraction and confirmation of aptamers transfection.\nHEK293 and H23S/R cells were seeded into 96-well plates then transfected with 5, 12.5, 25, 75 and 100 nM of MAFG aptamers or treated with PBS-Mg using Jet Pei PolyPlus transfection reagent (PolyPlus Transfection, USA). The dose of 25 nM aptamer was afterwards used in combination with increased doses of CDDP to assay viability and ROS production as described above. To confirm the aptamer-transfection efficiency cells were seeded in 24-well plates for aptamer isolation and confirmation of aptamer transfection by quantitative analysis. A Myc-DDK-tagged ORF clone of MAFG the negative control pCMV6 were used for in transient transfection (OriGene, USA) in combination with MAFG-aptamers following the same procedure."}, "H23R cells [2]": {"system": "H23R cells", "assay": "ROS production after CDDP exposure, resistant cells", "format": "cell-based, human", "protocol": "FIG. 2. Viability assays and Reactive Oxygenated Species detection after CDDP treatment in H23 cell lines. (A) Viability to CDDP in H23S (left) and H23R (right) at 24, 48 and 72 hours and 6 concentrations of CDDP measured by MTT assay. (B) Increment of ROS production in H23S (left) and H23R (right) after 24, 48 and 72 hours of CDDP treatment. $: 72h (vs Basal).\nH23/A2780 cells were cultured in 96-well black plates at density of 10,000 cells/well. Cells were treated with 6 different doses of CDDP for 24, 48 and 72 h in RPMI containing 10% FBS. Then treatments were removed and cells were loaded with the fluorescent probe 2′,7′-dichlorodihydrofluorescein diacetate (H2DCFDA) (10 μM) for 45 minutes in RPMI medium (FBS free). Cells were washed twice with RPMI (10% FBS), and fluorescence was recorded in a Fluostar Optima, each hour, over 4 hours period. […] ROS production was calculated dividing the mean H2DCFDA fluorescence by the mean viability. […] All experiments included cells treated with RPMI alone (Basal), and one well without cells as fluorescence basal.\nH23/A2780 cells were cultured in 96-well black plates at density of 10,000 cells/well. […] Cells were washed twice with RPMI (10% FBS), and fluorescence was recorded in a Fluostar Optima at 520 nm after excitation at 485 nm. […] ROS production was calculated dividing the mean H2DCFDA fluorescence by the mean viability. […]"}, "NRF2": {"system": "NRF2", "assay": "Semiquantitative RT-PCR expression after cisplatin treatment", "format": "cell-based, human", "protocol": "For semiquantitative RT-PCR, 500 ng of total RNA isolated from cell lines was used for RT reaction using PrimeScript™ RT Master (Clontech-Takara, USA) and subsequent semiquantitative PCR using Promega PCR Mix (Promega, USA) as previously described. Relative quantification was performed by measuring the intensity of band amplified using ImageJ software. Primers for HMOX1 (F: 5′-[…]-3′; R: 5′-[…]-3′), MAFG (F: 5′-[…]-3′; R: 5′-[…]-3′) and GAPDH (F: 5′-GAGAGACCCTCACTGCTG-3′; R: 5′-[…]-3′) were designed to include the probe from the array in order to assure the correct transcript identification."}, "MAFG": {"system": "MAFG", "assay": "Determination of the MAFG amino acids with which the aptamer binds", "conditions": "aligned with peptides M4 and M5", "source_text": "FIG. 11. Amino acids of MAFG with which apMNK6F binds (see chA and chB). Interaction zones of apMNK6F aligned with peptides M4 and M5\nMoreover, we determined the precise amino acids of MAFG with which apMNK6F binds (see chA and chB of FIG. 11). […] More precisely, the interaction occurs with amino acids 57ARG, 60LYS, 61ASN, 62ARG, 63GLY, 64TYR, 65ALA, 66ALA, 67SER, 68CYS, 69ARG, 70VAL, 71LYS, and 75GLN of the epitope of MAFG comprising amino acids 57 to 75 RTLKNRGYAASCRVKRVTQ (amino acids 57 to 75)."}, "[3]": {"target": "T1, MAFG in tumor samples of patients with lung cancer (Homo sapiens, UniProt O15525)", "T1 construct": "from tissue; host or cells: Formalin-fixed paraffin-embedded NSCLC tumour sections", "assay": "Aptahistochemistry in NSCLC tumor samples", "conditions": "20 tumor samples classified by MAFG mRNA levels", "protocol": "The formalin-fixed and paraffin-embedded tissue sections of patients with lung cancer were baked 15 minutes at 60° C. Deparaffinization was performed by two washes of xylene for 10 minutes each. Tissue sections were rehydrated by a sequential wash in 100%, 90%, 80%, 70% ethanol and distilled water for 5 minutes each. Antigen retrieval was achieved by heat treatment in a pressure cooker for 2 minutes in 10 mM citrate buffer (pH 6.5). Endogenous peroxidase activity of tissues was blocked with 0.3% […]. The primary binding reaction was performed with 10 pmol/ml of digoxigenin-conjugated aptamers overnight at room temperature. The secondary binding reaction was performed with anti-digoxigenin conjugated with POD (Roche; 1/200 dilution in TBS) for 45 minutes. Staining was done using the Immunoperoxidase DAB kit (Master Diagnostica), according to the manufacturer's instructions. The sections were counterstained with hematoxylin.\nWe then took advantage of the aptacytochemistry to perform an aptamer-based histochemistry in 20 tumor samples from our cohort of patients with known mRNA levels of MAFG. […] To determine the correlation between the aptahistochemistry and the mRNA levels of MAFG, we calculated the percentage of cells with positive staining from the total number of cells computed at four different areas randomly selected for each sample."}}, "data": [{"molecule": "[NH2][Pt]([NH2])([Cl])[Cl]", "note": "[CDDP, Cisplatin]", "values": [{"measurement": "CDDP resistance index without aptamer", "setting": "H23R cells [1]", "result": 2.63}, {"measurement": "ROS production versus basal untreated cells", "setting": "H23R cells [2]; 3.00 μg/ml CDDP", "result": 159, "unit": "%"}, {"measurement": "ROS after treatment with the drug", "setting": "H23R cells [2]; Example 1", "result": "no changes"}, {"measurement": "NRF2 expression after cisplatin treatment", "setting": "NRF2", "result": "did not changed"}]}, {"molecule": "B1", "values": [{"measurement": "interaction zone of the aptamer on MAFG", "setting": "MAFG", "result": "interaction occurs mainly with peptide M4"}, {"measurement": "percentage of positive cells in samples with higher MAFG levels", "setting": "[3]", "result": "significant increment in the percentage of positive cells"}]}]}
